Measurements: patent US5300629A, “Bactericidal and/or bacteriostatic peptides isolated from hemolymph of honeybees” (Plant Genetic Systems, N.V., priority 1987, dated 1994)

How the values were obtained:
Format in all cases: cell-based
[1] = test system: Pseudomonas acidovorans CuETM 83-109; experiment: Inhibition zone assay; parameters: key: --: "-" means that no inhibition has been found; settings: I and B 10 ul, L 5 ug
[2] = test system: Janthinobacterium lividum Sneath HB; experiment: Inhibition zone assay; parameters: key: --: "-" means that no inhibition has been found; settings: I and B 10 ul, L 5 ug
[3] = test system: Rhodococcus equi ATCC 25729; experiment: Inhibition zone assay; settings: I and B 10 ul, L 5 ug
[4] = test system: Agrobacterium tumefaciens DSM 3129; experiment: Inhibition zone assay; parameters: key: --: "-" means that no inhibition has been found; settings: I and B 10 ul, L 5 ug
[5] = test system: Serratia plymuthica ATCC 183; experiment: Inhibition zone assay; parameters: key: --: "-" means that no inhibition has been found; settings: I and B 10 ul, L 5 ug
[6] = test system: Pseudomonas cepacia ATCC 25416; experiment: Inhibition zone assay; parameters: key: --: "-" means that no inhibition has been found; settings: I and B 10 ul, L 5 ug
[7] = test system: Klebsiella aerogenes 1961 E; experiment: Inhibition zone assay; parameters: key: --: "-" means that no inhibition has been found; settings: I and B 10 ul, L 5 ug
[8] = test system: Corynebacterium fascians NCPPB 1488; experiment: Inhibition zone assay; parameters: key: --: "-" means that no inhibition has been found; settings: I and B 10 ul, L 5 ug
[9] = test system: Erwinia salicis NCPPB 2530; experiment: Inhibition zone assay; parameters: key: --: "-" means that no inhibition has been found; settings: I and B 10 ul, L 5 ug
[10] = test system: Azospirillum lipoferum ATCC 29707; experiment: Inhibition zone assay; parameters: key: --: "-" means that no inhibition has been found; settings: I and B 10 ul, L 5 ug
[11] = test system: Bacillus megaterium QMB 1551; experiment: Inhibition zone assay; settings: I and B 10 ul, L 5 ug
[12] = test system: Xanthomonas campestris pv. graminis NCPPB 2700; experiment: Inhibition zone assay; parameters: key: --: "-" means that no inhibition has been found; settings: I and B 10 ul, L 5 ug
[13] = test system: Agrobacterium rhizogenes ATCC 11325; experiment: Inhibition zone assay; parameters: key: --: "-" means that no inhibition has been found; settings: I and B 10 ul, L 5 ug
[14] = test system: Bacillus subtilis NRRL B-237; experiment: Inhibition zone assay; parameters: key: --: "-" means that no inhibition has been found; settings: I and B 10 ul, L 5 ug
[15] = test system: Xanthomonas campestris pv. vesicatoria XV82-4; experiment: Inhibition zone assay; parameters: key: --: "-" means that no inhibition has been found; settings: I and B 10 ul, L 5 ug
[16] = test system: Staphylococcus hominis STH B3; experiment: Inhibition zone assay; parameters: key: --: "-" means that no inhibition has been found; settings: L 5 ug
[17] = test system: Serratia liquefaciens DSM 30125; experiment: Inhibition zone assay; parameters: key: --: "-" means that no inhibition has been found; settings: I 10 ul, L 5 ug
[18] = test system: Flavobacterium devorans NRRL B-54; experiment: Inhibition zone assay; parameters: key: --: "-" means that no inhibition has been found; settings: I and B 10 ul, L 5 ug
[19] = test system: Xanthomonas campestris pv. oryzae IRN 235; parameters: key: --: "-" means that no inhibition has been found
[20] = test system: Erwinia carotovora var. atroseptica NCPPB 549; experiment: Inhibition zone assay; parameters: key: --: "-" means that no inhibition has been found; settings: I and B 10 ul, L 5 ug
[21] = test system: Listeria monocytogenes B5; experiment: Inhibition zone assay; parameters: key: --: "-" means that no inhibition has been found; settings: L 5 ug
[22] = test system: Rhizobium meliloti ZB 314; experiment: Inhibition zone assay; parameters: key: --: "-" means that no inhibition has been found; settings: I and B 10 ul, L 5 ug
[23] = test system: Serratia fonticola ATCC 298449; experiment: Inhibition zone assay; parameters: key: --: "-" means that no inhibition has been found; settings: I and B 10 ul, L 5 ug
[24] = test system: Pseudomonas paucimobilis ATCC 29837; experiment: Inhibition zone assay; parameters: key: --: "-" means that no inhibition has been found; settings: L 5 ug
[25] = test system: Proteus morganii CuETM 77-83; experiment: Inhibition zone assay; parameters: key: --: "-" means that no inhibition has been found; settings: I and B 10 ul, L 5 ug
[26] = test system: Corynebacterium insidiosum NCPPB 1109; experiment: Inhibition zone assay; settings: I and B 10 ul, L 5 ug
Experimental: Whole lymph or purified components, resuspended in PBS to a final volume equal to the starting material (heated lymph), was applied in 3 mm wells on agar plates seeded with the test organisms. Antibacterial activity was determined by measuring the growth-inhibition zones (in mm).

[27] = test system: Agrobacterium radiobacter ATCC 19358; experiment: Inhibition zone assay; parameters: key: --: "-" means that no inhibition has been found; settings: I and B 10 ul, L 5 ug
[28] = test system: Micrococcus lysodeikticus LMG 4050; experiment: Inhibition zone assay; settings: I and B 10 ul, L 5 ug
[29] = test system: Bacillus thuringiensis DSM 3131; experiment: Inhibition zone assay; parameters: key: --: "-" means that no inhibition has been found; settings: I and B 10 ul, L 5 ug
[30] = test system: Enterobacter agglomerans Gilardi 1081; experiment: Inhibition zone assay; parameters: key: --: "-" means that no inhibition has been found; settings: I and B 10 ul, L 5 ug
[31] = test system: Bordetella bronchiseptica ATCC 19395; experiment: Inhibition zone assay; parameters: key: --: "-" means that no inhibition has been found; settings: I and B 10 ul, L 5 ug
[32] = test system: Rhizobium phaseoli CIAT 899; experiment: Inhibition zone assay; parameters: key: --: "-" means that no inhibition has been found; settings: I and B 10 ul, L 5 ug
[33] = test system: Pseudomonas aureofaciens CCEB 518; experiment: Inhibition zone assay; parameters: key: --: "-" means that no inhibition has been found; settings: I and B 10 ul, L 5 ug

## chicken lysozyme: hen egg white lysozyme, comparison [reference compound]
[1]
  diameter of growth-inhibition zone: --
[2]
  diameter of growth-inhibition zone: --
[3]
  diameter of growth-inhibition zone: 4 mm
[4]
  diameter of growth-inhibition zone: --
[5]
  diameter of growth-inhibition zone: --
[6]
  diameter of growth-inhibition zone: --
[7]
  diameter of growth-inhibition zone: --
[8]
  diameter of growth-inhibition zone: --
[9]
  diameter of growth-inhibition zone: --
[10]
  diameter of growth-inhibition zone: --
[11]
  diameter of growth-inhibition zone: 6 mm
[12]
  diameter of growth-inhibition zone: --
[13]
  diameter of growth-inhibition zone: --
[14]
  diameter of growth-inhibition zone: --
[15]
  diameter of growth-inhibition zone: --
[16]
  diameter of growth-inhibition zone: --
[17]
  diameter of growth-inhibition zone: --
[18]
  diameter of growth-inhibition zone: --
[19]
  diameter of growth-inhibition zone: --
[20]
  diameter of growth-inhibition zone: --
[21]
  diameter of growth-inhibition zone: --
[22]
  diameter of growth-inhibition zone: --
[23]
  diameter of growth-inhibition zone: --
[24]
  diameter of growth-inhibition zone: --
[25]
  diameter of growth-inhibition zone: --
[26]
  diameter of growth-inhibition zone: 6 mm
[27]
  diameter of growth-inhibition zone: --
[28]
  diameter of growth-inhibition zone: 9 mm
[29]
  diameter of growth-inhibition zone: --
[30]
  diameter of growth-inhibition zone: --
[31]
  diameter of growth-inhibition zone: --
[32]
  diameter of growth-inhibition zone: --
[33]
  diameter of growth-inhibition zone: --
